This note sets out measurements from US20240239801A1, “PYRIMIDO[5,4,D]PYRIMIDINE COMPOUNDS, COMPOSITIONS COMPRISING THEM AND USES THEREOF” (Université de Montréal, priority 2021, published 2024).

Read-outs that look alike come from different tables or passages of the source. A value given as a limit tells only on which side of the number the result lay.

What all share (assay): Proliferation inhibition, CellTiter-Glo
Common to all, as to format: cell-based, human
For orientation: ATP-based viability assays read luminescence as a measure of living cells.

In assay [1] the test system is Calu6. As to conditions: Table D-2, 3 days, read-out: Calu6 Prolif. EC50. On the procedure: (§1) All cancer cell lines (A375, A101D, A2058, RKO, HT29 SK-MEL 30, IPC298, HepG2, HCT-116, Lovo, SW620, SW480, NCI-H358, NCI-H2122, Calu-6, NCIH2087, NCIH1755, NCIH1666 and Mewo) were obtained from ATCC and cultured in RPMI-1640 medium (Gibco) supplemented with 5% heat inactivated fetal bovine serum (FBS, Wisent) at 37° C. under 5% CO2. Cells were maintained in T175 flasks (Greiner). They were passaged by removing the culture medium, washing once in 10 mL of room temperature Phosphate Buffered Saline (PBS; Wisent) and incubating at 37° C. with 2 mL of 0.05% Trypsin (Thermo-Fisher). Trypsin was then inactivated by adding complete growth medium and the cells were then replated in a T175 culture dish at the appropriate dilution. All cell lines were routinely tested for mycoplasma contamination. Tissue type and mutational status of each cell line can be found in Table B.
(§2) CellTiter-Glo® viability analysis was conducted on cells plated in […] of complete RPMI-1640 growth medium in 96-well flat-bottomed white opaque plates (Greiner or Corning) at a density indicated in Table E (for each CCL, number of cells plated per well of a 96-well plate to perform the CellTiter-Glo® cell viability assay). The cell density in cells/cm^2 would correspond to cell number divided by the area of one well of a 96-well plate (0.32 cm^2). Cells were maintained overnight at 37° C. under 5% CO2 before treatment with compounds' dilution series for 3 days.
(§3) In a dilution series 100 μL/well of test substance dilution prepared in complete RPMI-1640 growth media was added to the cells plated initially in 100 μL of growth media. The dilution series is selected so that ten concentrations cover a range from 30 μM or 10 μM to […]. If necessary (as in the case of A375 cells, which were more sensitive to the compounds) the initial concentration of 10 μM is lowered to 1 μM and further dilution is carried out accordingly. The final concentration of DMSO in the assay is set to 0.5%.
(§4) After 3 days of incubation, the growth media were removed by aspiration and 60 μL of diluted CellTiter-Glo® reagent (10 μL CellTiter-Glo® reagent+50 μL of PBS) was added to each well. Cells were allowed to lyse and to equilibrate in CellTiter-Glo® reagent by 5 min incubation on a plate shaker followed by 10 min incubation at room temperature. Luminescence signals were then acquired on a Synergy Neo2 plate reader (Biotek).
(§5) The effect of each compound dilution on the proliferation of cancer cell lines was expressed in % inhibition and calculated as follows. An internal 100% inhibition control (1 μM of trametinib; cat. No. HY-10999; MedChem Express; CAS No. 871700-17-3) was included in each plate and used as a measure of CellTiter-Glo® signal background. The value obtained for trametinib was subtracted from each data point. The average of DMSO (vehicle) controls (set as 0% inhibition) was established and used to calculate % inhibition:
(§6) The ability of each compound to inhibit proliferation was expressed as a EC50 value obtained by plotting the effect values for each data point of a dilution series and fitting the obtained curves using a log(agonist) versus response−variable slope (four parameters) function using GraphPadPrism (V7.0) or Dotmatics Screening Ultra platform.

In assay [2] the test system is HCT116. As to conditions: Table D-1, 3 days, read-out: HCT116 Prolif. EC50. The method, then: as §1, §2, §3, §4, §5, §6
In assay [3] the test system is HT-29. As to conditions: Table D-1, 3 days, read-out: HT-29 Prolif. EC50. The method, then: as §1, §2, §3, §4, §5, §6
In assay [4] the test system is IPC298. To be noted: Table D-1, 3 days, read-out: IPC298 Prolif. EC50. On the procedure: as §1, §2, §3, §4, §5, §6
For assay [5], the system named is NCI-H2122. To be noted: Table D-2, 3 days, read-out: NCI-H2122 Prolif. EC50. The method, then:
as §1, §2, §3, §4, §5, §6

Assay [6] has as its system NCI-H358. As to conditions: Table D-2, 3 days, read-out: NCI-H358 Prolif. EC50. The method, then: as §1, §2, §3, §4, §5, §6
In assay [7] the test system is NCIH1755. As to conditions: Table D-2, 3 days, read-out: NCIH1755 Prolif. EC50. The method, then:
as §1, §2, §3, §4, §5, §6

Assay [8] concerns NCIH2087. To be noted: Table D-2, 3 days, read-out: NCIH2087 Prolif. EC50. On the procedure:
as §1, §2, §3, §4, §5, §6

Assay [9] deals with RKO. As to conditions: Table D-1, 3 days, read-out: RKO Prolif. EC50. The method, then: as §1, §2, §3, §4, §5, §6
Assay [10] has as its system SW480. To be noted: Table D-2, 3 days, read-out: SW480 Prolif. EC50. The method, then:
as §1, §2, §3, §4, §5, §6

Assay [11] deals with SW620. To be noted: Table D-2, 3 days, read-out: SW620 Prolif. EC50. On the procedure: as §1, §2, §3, §4, §5, §6
Assay [12] concerns A101D. To be noted: Table D-1, 3 days, read-out: A101D Prolif. EC50. On the procedure: as §1, §2, §3, §4, §5, §6
For assay [13], the system named is A2058. As to conditions: Table D-1, 3 days, read-out: A2058 Prolif. EC50. The method, then: as §1, §2, §3, §4, §5, §6

The EC50 is the concentration needed to bring the measured effect to its halfway point. Consider `Cc1ccc2c(Nc3cccc(Cl)c3F)nccc2c1NC(=O)c1csc2c(N)ncnc12` [Belvarafenib, reference compound], for which the EC50 in assay [1] (Homo sapiens, Calu-6, 72 h) was less than 0.3 µM; in [2] (Homo sapiens, HCT-116, 72 h), 0.3 to 3 µM; in assay [3] (Homo sapiens, HT-29, 72 h) it was less than 0.3 µM; in assay [4] (Homo sapiens, IPC-298, 72 h), less than 0.3 µM; in [5] (Homo sapiens, NCI-H2122, 72 h) it was 0.3 to 3 µM; in assay [6] (Homo sapiens, NCI-H358, 72 h), 0.3 to 3 µM. Further, the EC50 in [7] (Homo sapiens, NCI-H1755, 72 h) was greater than 3 µM; in assay [8] (Homo sapiens, NCI-H2087, 72 h) it was less than 0.3 µM; in assay [9] (Homo sapiens, RKO, 72 h), less than 0.3 µM; in [10] (Homo sapiens, SW480, 72 h) it was 0.3 to 3 µM; in [11] (Homo sapiens, SW-620, 72 h) it was 0.3 to 3 µM.

For `Cc1c(F)cccc1S(=O)(=O)Nc1ccc(F)c(Nc2ncnc3cnc(-n4cc(C(=O)N(C)Cc5ccncc5)c5ccccc54)nc23)c1F` [Example 98], the EC50 in assay [12], in assay [13], in assay [1], in assay [2], in assay [3] and in [4] was less than 0.3 µM throughout. The concentration for a half-maximal effect (EC50) in assay [5] was 0.3 to 3 µM; in assay [6], less than 0.3 µM; in [7] it was less than 0.3 µM; in assay [8] it was less than 0.3 µM; in assay [9] it was less than 0.3 µM; in assay [10] it was 0.3 to 3 µM. Also, the EC50 in [11] fell in the range of 0.3 to 3 µM.

As to `COc1ccc(S(=O)(=O)Nc2ccc(F)c(Nc3ncnc4cnc(-n5cnc6c(N)cccc65)nc34)c2F)c(C)c1Cl` [Example 112], the EC50 in assay [12] was less than 0.3 µM; in [13] it was less than 0.3 µM; in [1] it was 0.3 to 3 µM; in [2] it was 0.3 to 3 µM; in [3], less than 0.3 µM; in assay [5], 0.3 to 3 µM. For the same molecule, the EC50 in assay [6] is less than 0.3 µM; in assay [8], 0.3 to 3 µM; in assay [9], less than 0.3 µM; in assay [10] it was 0.3 to 3 µM; in [11], 0.3 to 3 µM.

`Cc1c(F)cccc1S(=O)(=O)Nc1ccc(F)c(Nc2ncnc3cnc(-n4cnc5c(-c6cccnc6)cccc54)nc23)c1F` [Example 114]: the EC50 in assay [12] (Homo sapiens, A101D, 72 h) was less than 0.3 µM; in assay [13] (Homo sapiens, A2058, 72 h), less than 0.3 µM; in [1] (Homo sapiens, Calu-6, 72 h) it was greater than 3 µM; in assay [2] (Homo sapiens, HCT-116, 72 h), 0.3 to 3 µM; in [3] (Homo sapiens, HT-29, 72 h), less than 0.3 µM; in [4] (Homo sapiens, IPC-298, 72 h), less than 0.3 µM. Moreover, the EC50 was greater than 3 µM in [5] (Homo sapiens, NCI-H2122, 72 h); less than 0.3 µM in [6] (Homo sapiens, NCI-H358, 72 h); greater than 3 µM in [7] (Homo sapiens, NCI-H1755, 72 h); 0.3 to 3 µM in [8] (Homo sapiens, NCI-H2087, 72 h); less than 0.3 µM in [9] (Homo sapiens, RKO, 72 h); greater than 3 µM in assay [10] (Homo sapiens, SW480, 72 h). Further, in assay [11] (Homo sapiens, SW-620, 72 h), the EC50 was greater than 3 µM.

With `O=S(=O)(Nc1ccc(F)c(Nc2ncnc3cnc(-n4cnc5c(N6CCC7(CCCO7)CC6)cccc54)nc23)c1F)c1cccc(Cl)c1Cl` [Example 129], the EC50 in assay [12] is less than 0.3 µM; in assay [13], less than 0.3 µM; in [1] it was 0.3 to 3 µM; in [2] it was 0.3 to 3 µM; in assay [3] it was less than 0.3 µM; in [4] it was less than 0.3 µM. The EC50 was 0.3 to 3 µM in [5]; less than 0.3 µM in assay [6]; 0.3 to 3 µM in assay [7]; 0.3 to 3 µM in assay [8]; less than 0.3 µM in assay [9]; 0.3 to 3 µM in [10]. In addition, in assay [11], the EC50 fell in the range of 0.3 to 3 µM.
